The values below are quoted from earlier work in US20110086102A1, “DELAYED RELEASE COMPOSITIONS” (Teva Pharmaceutical Industries Ltd., priority 2009, published 2011).

Molecules are shown by their SMILES. Read-outs that look alike come from different tables or passages of the source.

In the case of `COc1c(C)c2c(c(O)c1C/C=C(\C)CCC(=O)[O-])C(=O)OC2.[Na+]` [Mycophenolate sodium, (E)-6-(4-hydroxy-6-methoxy-7-methyl-3-oxo-1,3-dihydro-isobenzofuran-5-yl)-4-methylhex-4-enoic acid sodium salt], the Solubility result runs as follows: (0.1N hydrochloric acid) “practically insoluble”; (aqueous media at physiological pH) “highly soluble”.
